In patent US10383866B2, “Alkyl dihydroquinoline sulfonamide compounds” (AMGEN INC., priority 2015, dated 2019):

Assays:
human Nav1.7 = molecular target: T1, human Nav1.7 (Homo sapiens, UniProt Q15858); assay: Nav 1.7 In Vitro PX Assay (PatchXpress whole cell voltage clamp, partially inactivated state); assay type: cell-based; conditions: HEK 293 cells stably transfected with human Nav1.7, holding potential yielding 20 to 50% inactivation, read-out: hNav1.7 PX IC50
T1 construct: expressed in transfected cells; host or cells: HEK 293
Protocol: Nav 1.7 In Vitro PX Assay
HEK 293 cells stably transfected with human Nav1.7 were recorded in whole cell voltage clamp mode with the PatchXpress automated electrophysiology system (Molecular Devices, LLC, Sunnyvale, Calif.). Compound effects were measured on a partially inactivated state of the sodium channel Cells were clamped to a holding potential yielding 20 to 50% inactivation. To elicit sodium current, channels were activated by pulsing to −10 mV for 20 msec. This voltage protocol was repeated at a rate of 0.1 Hz throughout the experiment. A single concentration of test compound was applied to cells for a duration of 3 minutes. Peak sodium current was measured at the end of the compound addition period to determine percent inhibition. Three to five cells were tested per concentration, and IC50 curves were fitted to percent inhibition as a function of concentration.

human PXR = molecular target: T2, human PXR (Homo sapiens, UniProt O75469); assay: Human PXR @ 2 uM POC; assay type: in vitro ADME
T2 sequence (O75469 1-434): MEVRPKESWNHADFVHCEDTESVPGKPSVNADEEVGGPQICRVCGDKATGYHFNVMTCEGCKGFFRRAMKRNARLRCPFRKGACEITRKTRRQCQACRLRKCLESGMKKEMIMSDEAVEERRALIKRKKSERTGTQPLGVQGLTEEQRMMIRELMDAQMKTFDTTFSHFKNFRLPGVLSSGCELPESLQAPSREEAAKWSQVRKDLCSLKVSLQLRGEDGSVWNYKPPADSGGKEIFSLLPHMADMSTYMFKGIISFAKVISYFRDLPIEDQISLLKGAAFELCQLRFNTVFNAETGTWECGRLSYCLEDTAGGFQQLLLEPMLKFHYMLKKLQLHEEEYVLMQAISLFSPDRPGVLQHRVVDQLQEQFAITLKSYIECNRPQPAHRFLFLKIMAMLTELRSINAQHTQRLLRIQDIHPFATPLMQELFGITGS

HLM in vitro = assay type: in vitro ADME, human
hNav1.7 = molecular target: T3, hNav1.7 (Homo sapiens, UniProt Q15858); assay: Nav 1.7 IWQ In Vitro Assay (IonWorks Quattro population patch-clamp); assay type: cell-based; conditions: HEK 293 cells stably transfected with Nav 1.7, 26th pulse to -20 mV
T3 construct: expressed in transfected cells; host or cells: HEK 293
Protocol: Nav 1.7 or Nav 1.5 IWQ In Vitro Assay
HEK 293 Cells stably transfected with either Nav 1.7 or Nav 1.5 were recorded in population patch-clamp mode with the IonWorks® Quattro automated electrophysiology system in accordance with the manufacturer's specifications (Molecular Devices, LLC, Sunnyvale, Calif.). Sodium channel currents were measured in response to a train of depolarizations that induced successively greater inactivation.
Cells were held at −110 mV for three seconds (Nav 1.7) or half a second (Nav 1.5) from a holding voltage of −15 mV, then put through a series of 26 pulses of 150 msec duration to −20 mV at a frequency of 5 Hz. Cells were then left unclamped for a period of 3 to 8 minutes while a single concentration of test compound was added. Cells were then reclamped and put through the same voltage protocol. Current at the end of the 26th pulse to −20 mV was subtracted from the peak current evoked by the 26th pulse to −20 mV to correct for leak current. Percent block was calculated for each concentration in duplicate, and IC50 curves were fitted to percent block as a function of concentration.

T1 sequence (Q15858 whole entry): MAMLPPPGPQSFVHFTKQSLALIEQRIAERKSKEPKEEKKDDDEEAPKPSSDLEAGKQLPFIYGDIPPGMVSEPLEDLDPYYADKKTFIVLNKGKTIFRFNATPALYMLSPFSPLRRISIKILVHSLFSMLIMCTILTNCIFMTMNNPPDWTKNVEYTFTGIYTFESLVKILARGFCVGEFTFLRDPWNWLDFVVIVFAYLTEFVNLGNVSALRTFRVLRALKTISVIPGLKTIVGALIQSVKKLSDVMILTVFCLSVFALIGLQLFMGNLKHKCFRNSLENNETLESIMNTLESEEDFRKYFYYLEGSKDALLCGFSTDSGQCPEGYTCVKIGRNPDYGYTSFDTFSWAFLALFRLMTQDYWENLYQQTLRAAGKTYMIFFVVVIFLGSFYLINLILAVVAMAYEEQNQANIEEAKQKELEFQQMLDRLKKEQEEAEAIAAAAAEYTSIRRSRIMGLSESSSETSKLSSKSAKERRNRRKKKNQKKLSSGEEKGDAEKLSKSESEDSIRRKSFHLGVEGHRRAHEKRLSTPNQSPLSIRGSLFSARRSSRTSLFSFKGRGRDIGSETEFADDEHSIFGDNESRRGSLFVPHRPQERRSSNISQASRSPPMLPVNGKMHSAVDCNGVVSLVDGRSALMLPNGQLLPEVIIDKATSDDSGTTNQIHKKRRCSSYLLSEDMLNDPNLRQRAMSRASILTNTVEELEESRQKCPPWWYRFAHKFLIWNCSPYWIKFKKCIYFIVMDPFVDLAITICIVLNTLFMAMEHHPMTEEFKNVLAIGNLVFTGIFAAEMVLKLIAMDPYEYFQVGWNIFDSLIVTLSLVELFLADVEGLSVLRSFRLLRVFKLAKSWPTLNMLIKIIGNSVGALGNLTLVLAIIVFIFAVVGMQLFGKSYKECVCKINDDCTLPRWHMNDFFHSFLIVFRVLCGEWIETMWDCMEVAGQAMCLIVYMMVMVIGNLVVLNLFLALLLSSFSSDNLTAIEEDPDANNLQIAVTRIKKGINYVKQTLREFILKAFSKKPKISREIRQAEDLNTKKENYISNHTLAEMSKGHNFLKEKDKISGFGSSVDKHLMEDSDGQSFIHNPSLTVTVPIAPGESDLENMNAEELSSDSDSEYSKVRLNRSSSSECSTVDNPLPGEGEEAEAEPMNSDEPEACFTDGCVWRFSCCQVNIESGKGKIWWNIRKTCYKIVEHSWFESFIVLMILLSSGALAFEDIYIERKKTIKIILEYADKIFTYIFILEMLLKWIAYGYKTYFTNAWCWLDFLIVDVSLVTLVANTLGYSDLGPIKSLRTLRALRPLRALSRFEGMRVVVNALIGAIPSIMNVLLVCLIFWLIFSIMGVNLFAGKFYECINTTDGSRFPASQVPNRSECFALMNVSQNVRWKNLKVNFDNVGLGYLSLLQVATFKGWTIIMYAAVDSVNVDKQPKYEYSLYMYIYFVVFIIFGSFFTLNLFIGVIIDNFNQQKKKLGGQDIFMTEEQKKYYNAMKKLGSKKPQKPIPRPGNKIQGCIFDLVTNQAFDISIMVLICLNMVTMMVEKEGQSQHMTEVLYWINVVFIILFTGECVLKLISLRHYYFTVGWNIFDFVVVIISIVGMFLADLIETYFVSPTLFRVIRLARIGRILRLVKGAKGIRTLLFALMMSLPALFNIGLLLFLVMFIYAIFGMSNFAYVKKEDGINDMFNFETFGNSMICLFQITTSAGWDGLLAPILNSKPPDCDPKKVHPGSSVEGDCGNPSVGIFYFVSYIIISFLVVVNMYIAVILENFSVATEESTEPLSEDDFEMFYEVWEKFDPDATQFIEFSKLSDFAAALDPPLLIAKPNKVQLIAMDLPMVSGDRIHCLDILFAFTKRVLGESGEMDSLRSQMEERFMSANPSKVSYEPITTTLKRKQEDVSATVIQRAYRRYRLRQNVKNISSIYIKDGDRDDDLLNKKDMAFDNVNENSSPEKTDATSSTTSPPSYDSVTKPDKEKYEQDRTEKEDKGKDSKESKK
T3 sequence (Q15858 whole entry): as above

SMILES | IC50 (human Nav1.7) [µM] | human PXR @ 2 uM POC S (human PXR) [%] | HLM in vitro (HLM in vitro) | IC50 (hNav1.7) [µM]
COc1cc(CCCC(F)(F)F)c(F)cc1-n1c(=O)ccc2cc(S(=O)(=O)Nc3ccon3)ccc21 (atropisomer, axis not shown; (P)) [Example 5, (P)-1-(5-fluoro-2-methoxy-4-(4,4,4-trifluorobutyl)phenyl)-N-(isoxazol-3-yl)-2-oxo-1,2-dihydroquinoline-6-sulfonamide] | 0.87 | 1.87 | <14.0 µL/min/mg | 0.002
COc1cc(CCC(F)(F)F)c(Cl)cc1-n1c(=O)ccc2cc(S(=O)(=O)Nc3ccon3)ccc21 (atropisomer, axis not shown; (P)) [Example 2, (P)-1-(5-chloro-2-methoxy-4-(3,3,3-trifluoropropyl)phenyl)-N-(isoxazol-3-yl)-2-oxo-1,2-dihydroquinoline-6-sulfonamide] | 0.08 | 2.38 | <14.0 µL/min/mg | 0.005
COc1cc(C[C@@H](C)C(F)(F)F)c(F)cc1-n1c(=O)ccc2cc(S(=O)(=O)Nc3ccon3)ccc21 (racemic) [Example 4, (P)-1-(5-fluoro-2-methoxy-4-(3,3,3-trifluoro-2-methylpropyl)phenyl)-N-(isoxazol-3-yl)-2-oxo-1,2-dihydroquinoline-6-sulfonamide] | 0.72 | −0.04 | <14.0 µL/min/mg | 0.012
COc1cc(CCC(F)(F)F)c(F)cc1-n1c(=O)ccc2cc(S(=O)(=O)Nc3ccon3)ccc21 (atropisomer, axis not shown; (P)) [Example 1, (P)-1-(5-fluoro-2-methoxy-4-(3,3,3-trifluoropropyl)phenyl)-N-(isoxazol-3-yl)-2-oxo-1,2-dihydroquinoline-6-sulfonamide] | 0.32 | 0.22 | <14.0 [2] μL/(min · mg) | 0.002
COc1cc(CC(F)(F)F)c(F)cc1-n1c(=O)ccc2cc(S(=O)(=O)Nc3ccon3)ccc21 (atropisomer, axis not shown; (P)) [Example 6B, (P)-1-(5-fluoro-2-methoxy-4-(2,2,2-trifluoroethyl)phenyl)-N-(isoxazol-3-yl)-2-oxo-1,2-dihydroquinoline-6-sulfonamide] | 0.0844 | −2.42 | <14.0 µL/min/mg | 0.0053
COc1cc(CCC(F)(F)F)c(F)cc1-n1c(=O)ccc2cc(S(=O)(=O)Nc3cccnn3)ccc21 (atropisomer, axis not shown; (P)) [Example 3, (P)-1-(5-fluoro-2-methoxy-4-(3,3,3-trifluoropropyl)phenyl)-2-oxo-N-(Pyridazin-3-yl)-1,2-dihydroquinoline-6-sulfonamide] | 0.98 | 3.20 | <14.0 µL/min/mg | 0.002
COc1cc(CC(F)(F)F)c(F)cc1-n1c(=O)ccc2cc(S(=O)(=O)Nc3ccon3)ccc21 (racemic) [Example 6A, 1-(5-fluoro-2-methoxy-4-(2,2,2-trifluoroethyl)phenyl)-N-(isoxazol-3-yl)-2-oxo-1,2-dihydroquinoline-6-sulfonamide] | 0.32 | −1.12 | <14.0 µL/min/mg | 0.00178
